This is an account of results in US5942641A, “Fluorenone derivatives, process for preparing the same and central or peripheral nerve degeneration repair and protective agent” (Otsuka Pharmaceutical Co., Ltd., priority 1993, dated 1999).

The test system of assay [1] is mouse dorsal root ganglion cells. As to the kind of experiment: Pharmacological Test 2: neurite outgrowth in primary culture of mouse dorsal root ganglion cells. Also on record: key: +: positive; ±: false positive; -: negative. The following applies: 7 days culture. The format is cell-based, mouse (C57BL/6). Here is the method: (The measurement of neurite outgrowth in primary culture of mouse dorsal root ganglion cells)
Preparation of cells was conducted according to a method of Horie et al. [H. Horie., FEBS, 296, 23 (1990)]. That is, C57BL/6 male mice aged 10 to 15 weeks were used. They were bleeded to death under ether anesthetization and the backbone from cervical vertebra to sacral vertebra was removed. The capsule of dorsal root ganglion of which ventral root and dorsal root had been cut was stripped in a Ham F12 medium (Flow laboratories) and then ganglia were treated with 0.25% collagenase (Worthington Biochemical Corporation) at 37° C. for 90 minutes. The medium was replaced by a Hank's physiological buffer solution containing no calcium and magnesium and cells were treated with 0.25% trypsin (Flow Laboratories) at room temperature for 20 minutes. A trypsin inhibitor (Sigma, 100 μg/ml) was added to terminate the enzyme reaction and trituration was conducted 20 times using a tapered Pasteur pipette. The medium was replaced again by the Ham F12 medium and cells were put through a nylon mesh (150 μm) to remove a cell mass which had not been separated. Cells were suspended in the Ham F12 medium containing a N1 additive [Bottenstein, J. E., Exp. Cell. Res., 125, 183 (1980)] (kanamycin of 60 μg/ml added).
A poly-1-lysine-coating cell disc as a culture medium which had been subjected to 10 μg/ml laminin (Koken Cell Gen) coating treatment at 37° C. for 3 hours was placed on a 24 well dish and nerve cells (5000 to 10000 cells/dish) were seeded. The test compound (concentration: 0.01 mol/l) was dissolved in dimethyl sulfoxide and diluted with a phosphate buffer solution to adjust to a final concentration, and then added to a culture solution. Cells were cultured in 5% CO2 -95% air phase at 37° C. for 7 days.
For the measurement of neurite outgrowth, the cell disc was washed with a phosphate buffer solution 7 days after initiation of the culture and immobilized with 4% paraformaldehyde at 4° C. for 24 hours, and then immune staining was conducted with Vecstatin ABC kit (Vector) using a neurofilament antibody (200 kD, manufactured by Boehringer Mannheim GmbH). The periphery of the cell disc was restrictively observed under microscopy, and the amount of neurofilament (whole length per well) was evaluated by comparing with the control well according to the following criteria: positive (+), false positive (±) and negative (-).

The subject of assay [2] is Nerve cells of the cerebral cortex. As to the kind of experiment: Pharmacological test 1: neurite sprouting (NS) of cultured fetal rat cerebral cortex nerve cells, phase contrast microscopy versus control. Format: cell-based. The conditions noted are these: 10 days after initiation of culture. Further details: key: ++: extremely strong in comparison with the control; +: strong in comparison with the control; ±: same as the control; -: inferior to the control. The source says: Nerve cells of the cerebral cortex were removed aseptically from a fetal rat (17 days-old) and cultured according to a Asou's method [Asou, H. Brain Res., 332; pages 355-357 (1985)]. After the meninx, blood vessel, etc. were removed from the cerebral hemisphere, they were put through a stainless steel mesh (pore size: 140μm). Then, the isolated cells were floated on a culture medium (Eagle's basal medium containing 10% fetal bovine serum and glucose of 1 g/l) and 1.5×10^6 cells were respectively seeded on a dish (diameter: 35 mm) coated with poly-L-lysine to initiate the culture (37° C., 3% CO2). After 24 hours, the culture medium was replaced by a culture medium containing a test compound and cultured for additional 9 days.
10 Days after initiation of the culture, neurite sprouting (NS) was evaluated under phase contrast microscopy by comparing with the control group.

SMILES strings stand for the structures.

For the compound `C=CCc1cc(Cl)c2c(c1O)-c1cc(Cl)c(O)c(CC=C)c1C2=O` [Example 33], the Neurite outgrowth action entry in assay [1] (Dose 10^-7 (mole)) is “+”. For `Cc1cc2c(c(C)c1O)C(=O)c1ccc(CSc3ccccc3)c(O)c1-2` [Example 136], the Neurite outgrowth action entry in assay [1] (Dose 3 × 10^-7 (mole)) was “+”. As to `C=CCc1ccc2c(c1O)-c1ccccc1C2=O` [Example 62], in assay [1] (Dose 10^-6 (mole)), the Neurite outgrowth action result is recorded as “+”. The “neurite sprouting (NS)” value in assay [2] (Dose 10^-6 (mole)) is “++”. Take `C=CCc1cc2c(cc1O)C(=O)c1ccc(CC=C)c(O)c1-2` [Example 29]: the Neurite outgrowth action entry in assay [1] (Dose 10^-7 (mole)) was “+”.

As to `Cc1cc2c(c(C)c1O)C(=O)c1ccc(C)c(O)c1-2` [Example 118, 1,3,6-trimethyl-2,5-dihydroxyfluorenone], the Neurite outgrowth action result in assay [1] (Dose 3 × 10^-7 (mole)) is “+”. Consider `C=CCc1ccc(O)c2c1C(=O)c1ccccc1-2` [Example 61], for which the “neurite sprouting (NS)” value in assay [2] (Dose 10^-5 (mole)) is reported as “++”. In the case of `Cc1cc2c(c(C)c1O)C(=O)c1ccc(CSC3CCCCC3)c(O)c1-2` [Example 142], the Neurite outgrowth action result in assay [1] (Dose 3 × 10^-8 (mole)) was “+”. As to `C=CCc1cc2c(c(CC=C)c1O)C(=O)c1c-2cc(CC=C)c(O)c1CC=C` [Example 50], the Neurite outgrowth action entry in assay [1] (Dose 10^-7 (mole)) is “+”. The same measure, in the same setting: to `Cc1cc2c(c(C)c1O)C(=O)c1ccc(CC#N)c(O)c1-2` [Example 144] belongs “+”.

With `CCCc1cc2c(c(CCC)c1O)C(=O)c1c(CCC)cc(CCC)c(O)c1-2` [Example 32], the Neurite outgrowth action entry in assay [1] (Dose 3 × 10^-8 (mole)) is given as “+”. For the compound `C=CCc1ccc(O)c2c1C(=O)c1c-2ccc(O)c1CC=C` [Example 28], in assay [2] (Dose 10^-5 (mole)), the “neurite sprouting (NS)” value is reported as “++”. With `C=CCc1cc2c(cc1O)C(=O)c1cccc(O)c1-2` [Example 35], in assay [2] (Dose 10^-7 (mole)), the “neurite sprouting (NS)” value was “+”. Regarding `CSc1ccc(O)c2c1C(=O)c1ccccc1-2` [Example 63], in assay [1] (Dose 10^-6 (mole)), the Neurite outgrowth action result is reported as “+”. Take `C=CCc1cc2c(cc1O)C(=O)c1c(CC=C)ccc(O)c1-2` [Example 30]: the Neurite outgrowth action result in assay [1] (Dose 10^-7 (mole)) is listed as “+”. For `C=CCc1c(O)ccc2c1C(=O)c1c-2ccc(O)c1CC=C` [Example 48], the Neurite outgrowth action entry in assay [1] (Dose 10^-7 (mole)) was “+”. Further, the “neurite sprouting (NS)” value in assay [2] (Dose 10^-6 (mole)) is given as “+”. As for `CCCc1c(O)c(O)c(CCC)c2c1C(=O)c1ccccc1-2` [Example 22, 1,4-di-n-propyl-2,3-dihydroxyfluorenone], the Neurite outgrowth action entry in assay [1] (Dose 10^-7 (mole)) is recorded as “+”. Consider `C=CCc1cc2c(cc1O)C(=O)c1ccccc1-2` [Example 18], for which, in assay [1] (Dose 10^-6 (mole)), the Neurite outgrowth action entry was “+”. Besides, in assay [2] (Dose 10^-5 (mole)), the “neurite sprouting (NS)” value is reported as “++”.

Regarding `C=CCc1cc2c(c(CC=C)c1O)-c1ccccc1C2=O` [Example 60], in assay [1] (Dose 10^-6 (mole)), the Neurite outgrowth action result is “+”. For the same compound, the “neurite sprouting (NS)” value in assay [2] (Dose 10^-7 (mole)) was “+”.

For `C=CCc1cc2c(cc1O)-c1cc(CC=C)c(O)cc1C2=O` [Example 44], in assay [1] (Dose 10^-7 (mole)), the Neurite outgrowth action entry is given as “+”. The same measure, in the same setting: the value for `C=CCc1c(O)ccc2c1C(=O)c1ccc(O)c(CC=C)c1-2` [Example 41] was “+”; that for `CCCc1ccc2c(c1O)-c1cc(CNc3ncccn3)c(O)c(CCC)c1C2=O` [Example 127] was “+”.

`O=C1c2cc(O)ccc2-c2c(O)cccc21` [Example 26]: the Neurite outgrowth action result in assay [1] (Dose 10^-7 (mole)) was “+”. For the same compound, the “neurite sprouting (NS)” value in assay [2] (Dose 10^-7 (mole)) was “+”. Take `CCCc1cc2c(c(CC(C)OCCOCCO)c1O)C(=O)c1c(CCC)cc(CCC)c(O)c1-2` (stereo not drawn) [Example 143]: the Neurite outgrowth action entry in assay [1] (Dose 10^-7 (mole)) is on record as “+”. For the compound `COc1cccc2c1-c1cc(C(C)C)c(O)cc1C2=O` [Example 36], the Neurite outgrowth action entry in assay [1] (Dose 10^-6 (mole)) is “+”.

Turning to `C=CCc1cc(C)c2c(c1O)C(=O)c1ccccc1-2` [Example 11], the “neurite sprouting (NS)” value in assay [2] (Dose 10^-5 (mole)) is on record as “+”. With `O=C1c2ccccc2-c2cc(O)c(O)cc21` [Example 20, 2,3-dihydroxyfluorenone], the Neurite outgrowth action result in assay [1] (Dose 10^-6 (mole)) is on record as “+”. With `C=CCc1cc2c(c(CC=C)c1O)C(=O)c1c(O)c(CC=C)cc(CC=C)c1-2` [Example 16], the “neurite sprouting (NS)” value in assay [2] (Dose 10^-7 (mole)) was “+”. With `C=CCc1cc(SC)c2c(c1O)-c1ccccc1C2=O` [Example 64], the Neurite outgrowth action result in assay [1] (Dose 10^-6 (mole)) was “+”.

For `C=CCc1cc2c(cc1O)C(=O)c1c-2ccc(CC=C)c1O` [Example 14], the “neurite sprouting (NS)” value in assay [2] (Dose 10^-7 (mole)) was “++”.

For `CCCc1ccc2c(c1O)-c1cc(CNC(CC(C)C)C(=O)OC)c(O)c(CCC)c1C2=O` (stereo not drawn) [Example 131], the Neurite outgrowth action result in assay [1] (Dose 10^-7 (mole)) is reported as “+”. Consider `O=C1c2cc(O)ccc2-c2cc(O)ccc21` [Example 40], for which the Neurite outgrowth action result in assay [1] (Dose 10^-6 (mole)) is “+”. The “neurite sprouting (NS)” value in assay [2] (Dose 10^-5 (mole)) is “++”.

On to `Cc1cc2c(c(C)c1O)C(=O)c1ccc(CNc3ncccn3)c(O)c1-2` [Example 123], for which, in assay [1] (Dose 10^-7 (mole)), the Neurite outgrowth action entry is “+”. On the same count and under the same terms, to `CCCc1cc2c(c(Cl)c1O)C(=O)c1c-2cc(Cl)c(O)c1CCC` [Example 54, 3,8-dichloro-1,6-di-n-propyl-2,7-dihydroxyfluorenone] belongs “+”. Still for that read-out and setting: to `CCCc1cc2c(c(CCC)c1O)C(=O)c1c-2cc(CCC)c(O)c1CCC` [Example 53] belongs “+”. For the compound `C=CCc1c(O)ccc2c1C(=O)c1ccccc1-2` [Example 17], the Neurite outgrowth action result in assay [1] (Dose 10^-6 (mole)) is on record as “+”. The “neurite sprouting (NS)” value in assay [2] (Dose 10^-5 (mole)) was “++”. For `CCCc1ccc2c(c1O)-c1cc(CN3CCC[C@H]3C(=O)OC)c(O)c(CCC)c1C2=O` [Example 132], the Neurite outgrowth action result in assay [1] (Dose 10^-7 (mole)) is “+”. In the case of `C=CCc1cc(Cl)c(O)c2c1C(=O)c1c-2cc(Cl)c(O)c1CC=C` [Example 34], the Neurite outgrowth action entry in assay [1] (Dose 10^-7 (mole)) is listed as “+”. As for `C=CCc1cc2c(c(CC=C)c1O)C(=O)c1ccccc1-2` [Example 19], in assay [1] (Dose 10^-7 (mole)), the Neurite outgrowth action result is “+”. In assay [2] (Dose 10^-5 (mole)), the “neurite sprouting (NS)” value is given as “++”. As for `COc1ccc(SCc2ccc3c(c2O)-c2cc(C)c(O)c(C)c2C3=O)cc1` [Example 141], the Neurite outgrowth action result in assay [1] (Dose 3 × 10^-8 (mole)) is “+”.

As for `C=CCc1cc2c(c(CC=C)c1O)C(=O)c1cc(CC=C)c(O)c(CC=C)c1-2` [Example 45], the Neurite outgrowth action result in assay [1] (Dose 10^-7 (mole)) is given as “+”. Besides, in assay [2] (Dose 10^-7 (mole)), the “neurite sprouting (NS)” value was “+”. With `CCCc1cc2c(c(CCC)c1OC(C)=O)C(=O)c1c(CCC)cc(CCC)c(OC(C)=O)c1-2` [Example 134], the Neurite outgrowth action result in assay [1] (Dose 3 × 10^-8 (mole)) is “+”.

Regarding `C=CCc1cc2c(cc1OC(C)=O)C(=O)c1c-2ccc(OC(C)=O)c1CC=C` [Example 106, 1,6-diallyl-2,7-diacetoxyfluorenone], in assay [1] (Dose 10^-7 (mole)), the Neurite outgrowth action entry is listed as “+”.
